# Experiments:
# [1] = system: rat model of mono-iodoacetic acid induced osteoarthritis pain; experiment: Osteoarthritis pain model, hind limb grip force in MIA-treated rats; assay type: in vivo; details: mean percent effect, ***p<0.001 vs vehicle-treated animals
# Procedure: Members of the TrkA inhibitors described above were tested and found effective in reducing osteoarthritis pain. The compounds tested were assessed in an in vivo model well known to those skilled in the art, the rat model of mono-iodoacetic acid induced osteoarthritis pain. A general review of various models of pain can be found in Joshi and Honore, Expert Opinion in Drug Discovery (2004) 1, pp. 323-334, and in the book ‘Drug Discovery and Evaluation, 2nd edition (H. Gerhard Vogel, editor; Springer-Verlag, New York, 2002; pp. 702-706).
# Pain behavior was assessed by measurement of hind limb grip force (GF) in adult osteoarthritic rats. Male Sprague Dawley rats, generally weighing 125-150 g, were injected in the unilateral knee join with a single intra-articular injection of sodium monoiodoacetate (MIA). Rats were tested at 21-28 days following MIA injection. A behavioral measure of activity-induced pain was carried out. Measurements of the peak hind limb grip force were conducted by recording the maximum compressive force (CFmax), in grams of force, exerted on a hind limb strain gauge setup, in a commercially available grip force measurement system (Columbus Instruments, Columbus, Ohio).
# During testing, each rat was gently restrained by grasping it around its rib cage and then allowed to grasp the wire mesh frame attached to the strain gauge. The experimenter then moved the animal in a rostral-to-caudal direction until the grip was broken. Each rat was sequentially tested twice at an approximately 2-3 minute interval to obtain a raw mean grip force (CFmax). This raw mean grip force data was in turn converted to a maximum hindlimb cumulative compressive force (CFmax), as the grams of force/kg of body weight, for each animal.
# For evaluating the compound effects, the hind limb grip force testing in the MIA-treated rats was conducted generally 30-60 minutes after dosing with the test compound. A group of age-matched nave (not injected with MIA) animals was added as a comparator to the drug-dosed groups. The vehicle control response for each group of MIA-treated animals was defined as the 0% response (0% effect), whereas the nave control group was defined as the normal response and as 100% effect. The % effect=(Treatment CFmax−Vehicle CFmax)/Vehicle CFmax]×100). Higher % effect numbers indicate increased relief from the pain in the model, with 100% indicating a return to the level of response seen in normal (non-osteoarthritic) animals. All experiments evaluating drug effects in this model were conducted in a randomized blinded fashion.
# Male Sprague Dawley rats (generally 250-300 g body weight at the time of testing) obtained from Charles River Laboratories (Wilmington, Mass.) were used for all experiments, unless indicated otherwise. […]
# TrkA = target: T1, TrkA (Homo sapiens, UniProt P04629); experiment: TrkA kinase inhibition, HTRF assay; assay type: biochemical; details: LCK peptide substrate 125 nM, TrkA 2-10 nM pre-incubated with ATP 200 μM
# T1 construct: purchased Invitrogen PV3144
# Outline: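 TrkA (2-10 nM) preactivated 20 min with 200 μM ATP in HEPES pH 7.4 with Mg2+/Mn2+, then compound for 10 min, then 125 nM biotinylated LCK-peptide for 1 h at ambient temperature. HTRF 665/620 ratio read; IC50 fitted from initial-rate percent inhibition.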
# TrkB = target: T2, TrkB (Homo sapiens, UniProt Q16620); experiment: TrkB kinase inhibition, HTRF assay; assay type: biochemical; details: LCK peptide substrate, assay ATP concentration targeted 5 μM
# T2 construct: purchased Invitrogen PV3616
# Procedure: (§1) TrkA, TrkB, and TrkC enzymes were obtained from Invitrogen (as catalog numbers PV3144, PV3616, and PV3617, respectively). The ability of a compound to inhibit the enzymatic activity of the TrkA, TrkB, and TrkC enzymes was determined in separate assays. Enzyme activity was measured in an HTRF® (homogeneous time resolved fluorescence) assay, which detects enzymatic phosphorylation of a biotinylated synthetic peptide substrate (an LCK peptide analog, biotin-ahx-GAEEEIYAAFFA, from Genemed Synthesis). Phosphorylation is assessed by HTRF® in the presence of an anti-phosphotyrosine antibody conjugated to Eu^3+ cryptate (Cisbio) as donor fluorophore, and streptavidin conjugated to allophycocyanin (ProZyme) as acceptor fluorophore. The HTRF® signal was detected at two different wavelengths (620 nm and 665 nm) which were used to calculate the fluorescence ratio.
# (§2) Each enzyme was titrated to a concentration optimized to ensure accurate measurement of the initial reaction rate. To allow the Trk enzymes to undergo activation and auto-phosphorylation, a 20 minute pre-incubation with ATP was carried out (at twice the final targeted enzyme and ATP concentration) prior to addition of test compound and the peptide substrate.
# (§3) TrkA in vitro assays were performed by pre-incubating TrkA (2-10 nM) with ATP (200 μM) for 20 minutes at ambient temperature in 50 mM HEPES pH 7.4, 10 mM MgCl2, 2 mM MnCl2, 100 μM Na3VO4, 1 mM dithiothreitol, 0.01% BSA (bovine serum albumin). Then, to the activated Trk enzyme mixture was added the test compound in 2% dimethyl sulfoxide. After 10 minutes, the peptide substrate (125 nM) was added. After 1 hour, enzyme reactions were terminated by addition of equal reaction volumes of detection/stop reagent (containing 0.2 μg/mL anti-phosphotyrosine monoclonal antibody labeled with europium from Cisbio (catalog# PT66-K), and 4 μg/mL PhycoLink® Streptavidin-Allophycocyanin conjugate from ProZyme (catalog# PJ25S) in 60 mM EDTA in 40 mM HEPES pH 7.4, 480 mM KF, 0.01% Tween® 20 and 0.1% BSA bovine serum albumin) Reaction plates were stored at 4° C. overnight before reading the fluorescence ratio signal on a PerkinElmer EnVision™ fluorescence detector. Individual reaction wells were stopped at time points to obtain reaction rates. The test inhibitor compounds were assayed in duplicate, at half-log serial dilutions over a range of concentrations (e.g. starting at 50 μM or 5 μM as the high compound concentration). The percent Trk enzyme inhibition was calculated from the initial rates of the inhibited reactions relative to the uninhibited control. IC50 values were calculated by fitting the inhibition percent to the concentration of inhibitor [I] in the assay in equation 1 below, to solve for the IC50.
# (§4) Inhibition %=100[I]/([I]+[IC50]) equation 1
# (§5) The TrkB and TrkC in vitro assays were performed as described above, except that for these enzymes the assay ATP concentration targeted was 5 μM.
# TrkC = target: T3, TrkC (Homo sapiens, UniProt Q16288); experiment: TrkC kinase inhibition, HTRF assay; assay type: biochemical; details: LCK peptide substrate, assay ATP concentration targeted 5 μM
# T3 construct: purchased Invitrogen PV3617
# Procedure: as §1, §2, §3, §4, §5
# T2 sequence (Q16620 32-822): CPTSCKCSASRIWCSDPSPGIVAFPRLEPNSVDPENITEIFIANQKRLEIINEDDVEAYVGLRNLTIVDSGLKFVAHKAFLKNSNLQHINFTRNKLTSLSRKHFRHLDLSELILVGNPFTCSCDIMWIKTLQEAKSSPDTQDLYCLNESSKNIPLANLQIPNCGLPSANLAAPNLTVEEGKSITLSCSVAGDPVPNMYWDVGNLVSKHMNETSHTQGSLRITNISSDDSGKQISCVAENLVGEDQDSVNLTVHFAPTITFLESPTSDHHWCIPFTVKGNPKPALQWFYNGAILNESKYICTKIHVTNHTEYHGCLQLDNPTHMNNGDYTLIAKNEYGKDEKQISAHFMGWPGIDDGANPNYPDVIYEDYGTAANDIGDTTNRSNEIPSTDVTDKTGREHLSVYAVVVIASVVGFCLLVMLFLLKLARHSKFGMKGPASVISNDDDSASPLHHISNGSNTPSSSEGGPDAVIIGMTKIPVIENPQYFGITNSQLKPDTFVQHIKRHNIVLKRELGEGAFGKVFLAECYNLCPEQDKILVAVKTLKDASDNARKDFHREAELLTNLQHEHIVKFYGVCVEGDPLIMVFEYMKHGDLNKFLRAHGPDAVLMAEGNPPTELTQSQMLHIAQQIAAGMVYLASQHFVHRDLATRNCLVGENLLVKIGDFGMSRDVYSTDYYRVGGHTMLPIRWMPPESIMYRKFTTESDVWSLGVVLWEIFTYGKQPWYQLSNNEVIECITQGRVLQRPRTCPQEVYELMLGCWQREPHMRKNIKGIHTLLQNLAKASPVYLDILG
# T1 sequence (P04629 33-796): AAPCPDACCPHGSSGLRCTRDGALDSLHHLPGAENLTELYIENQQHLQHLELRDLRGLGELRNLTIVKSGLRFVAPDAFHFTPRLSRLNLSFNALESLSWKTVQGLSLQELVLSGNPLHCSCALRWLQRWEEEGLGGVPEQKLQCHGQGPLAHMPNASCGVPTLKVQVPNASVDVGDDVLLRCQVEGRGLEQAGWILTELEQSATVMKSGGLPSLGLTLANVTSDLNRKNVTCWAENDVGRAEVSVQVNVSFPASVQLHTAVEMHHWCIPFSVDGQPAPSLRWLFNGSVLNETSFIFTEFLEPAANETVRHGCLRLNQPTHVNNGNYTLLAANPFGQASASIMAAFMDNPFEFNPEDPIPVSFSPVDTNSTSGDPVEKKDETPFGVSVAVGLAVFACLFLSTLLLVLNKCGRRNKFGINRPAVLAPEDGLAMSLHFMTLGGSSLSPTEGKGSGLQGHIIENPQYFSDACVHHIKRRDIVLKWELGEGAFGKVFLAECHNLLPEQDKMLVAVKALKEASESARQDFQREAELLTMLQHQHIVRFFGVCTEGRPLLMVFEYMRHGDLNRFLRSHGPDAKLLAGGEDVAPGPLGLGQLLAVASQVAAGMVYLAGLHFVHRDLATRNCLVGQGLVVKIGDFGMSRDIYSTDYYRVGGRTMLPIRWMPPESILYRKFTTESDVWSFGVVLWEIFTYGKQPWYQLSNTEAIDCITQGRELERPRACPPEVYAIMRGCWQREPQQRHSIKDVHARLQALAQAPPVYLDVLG
# T3 sequence (Q16288 32-839): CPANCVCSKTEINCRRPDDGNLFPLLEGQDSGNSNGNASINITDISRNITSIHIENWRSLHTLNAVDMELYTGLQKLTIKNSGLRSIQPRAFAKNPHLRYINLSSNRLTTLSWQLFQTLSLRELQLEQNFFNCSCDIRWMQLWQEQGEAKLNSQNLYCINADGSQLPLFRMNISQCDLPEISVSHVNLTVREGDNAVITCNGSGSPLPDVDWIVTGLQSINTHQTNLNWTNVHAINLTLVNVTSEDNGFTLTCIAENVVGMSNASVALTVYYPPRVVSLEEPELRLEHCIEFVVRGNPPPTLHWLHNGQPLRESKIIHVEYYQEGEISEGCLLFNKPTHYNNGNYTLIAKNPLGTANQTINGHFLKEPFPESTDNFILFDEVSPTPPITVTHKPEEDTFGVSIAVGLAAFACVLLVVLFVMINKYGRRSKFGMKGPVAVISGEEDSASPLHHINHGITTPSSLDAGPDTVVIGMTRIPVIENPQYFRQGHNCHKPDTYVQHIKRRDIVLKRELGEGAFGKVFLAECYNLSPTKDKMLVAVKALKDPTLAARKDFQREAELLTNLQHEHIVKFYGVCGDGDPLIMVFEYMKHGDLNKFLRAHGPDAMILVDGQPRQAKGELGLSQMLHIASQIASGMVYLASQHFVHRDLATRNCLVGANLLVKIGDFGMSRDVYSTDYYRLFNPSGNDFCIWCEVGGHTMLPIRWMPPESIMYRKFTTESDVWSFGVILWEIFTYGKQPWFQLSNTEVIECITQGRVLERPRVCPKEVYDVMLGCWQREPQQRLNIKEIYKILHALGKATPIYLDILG
IC50 (TrkA) [nM],IC50 (TrkB) [nM],IC50 (TrkC) [nM],Compound,% Effect ([1]; dose 100 mg/kg p.o.) [%***],% Effect ([1]; dose 30 mg/kg p.o.) [%***]
97.9,46,55.9,"CNC(=O)c1ccc(-c2cc(OC3CCOCC3)c3c(N)n[nH]c3c2)cc1N1CCN(C2CCCCC2)CC1 [Example 29, 4-[3-amino-4-(tetrahydro-2H-pyran-4-yloxy)-1H-indazol-6-yl]-2-(4-cyclohexylpiperazin-1-yl)-N-methylbenzamide]",77,
55.3,20.6,25.7,"NC(=O)c1ccc(-c2cc(OC3CCOCC3)c3c(N)n[nH]c3c2)cc1N1CCN(C2CC2)CC1 [Example 3, 4-[3-amino-4-(tetrahydro-2H-pyran-4-yloxy)-1H-indazol-6-yl]-2-(4-cyclopropylpiperazin-1-yl)benzamide]",,
4.74,,,"CNC(=O)c1ccc(-c2cc(OC3CCOCC3)c3c(N)n[nH]c3c2)cc1N1CCN(c2ncc(F)cn2)CC1 [Example 113, 4-[3-amino-4-(tetrahydro-2H-pyran-4-yloxy)-1H-indazol-6-yl]-2-[4-(5-fluoropyrimidin-2-yl)piperazin-1-yl]-N-methylbenzamide]",,89
2.95,1.63,3.09,"NC(=O)c1ccc(-c2cc(OC3CCCC3)c3c(N)n[nH]c3c2)cc1N1CCN(c2cccnc2)CC1 [Example 69, 4-[3-amino-4-(cyclopentyloxy)-1H-indazol-6-yl]-2-[4-(pyridin-3-yl)piperazin-1-yl]benzamide]",,
30.5,41.3,52.2,"CNC(=O)c1ccc(-c2cc(OC3CCOCC3)c3c(N)n[nH]c3c2)cc1N1CCN(CC(F)(F)F)CC1 [Example 108, 4-[3-amino-4-(tetrahydro-2H-pyran-4-yloxy)-1H-indazol-6-yl]-N-methyl-2-[4-(2,2,2-trifluoroethyl)piperazin-1-yl]benzamide]",,73
13.7,1.5,1.5,"CC(=O)Nc1ccc(-c2cc(OC3CCOCC3)c3c(C)n[nH]c3c2)cc1OCCOc1ccccc1 [Example 130, N-{4-[3-methyl-4-(tetrahydro-2H-pyran-4-yloxy)-1H-indazol-6-yl]-2-(2-phenoxyethoxy)phenyl}acetamide]",,
15.7,2.58,4.89,"CNC(=O)c1ccc(-c2cc(OC(C)C)c3c(N)n[nH]c3c2)cc1N1CCN(C2CCCCC2)CC1 [Example 109, 4-(3-amino-4-isopropoxy-1H-indazol-6-yl)-2-(4-cyclohexylpiperazin-1-yl)-N-methylbenzamide]",,
3.35,1.27,1.72,"CC(Oc1cc(-c2ccc(C(N)=O)c(N3CCN(c4ccccc4)CC3)c2)cc2[nH]nc(N)c12)C(F)(F)F (centres unmarked) [Example 92, 4-{3-amino-4-[(1,1,1-trifluoropropan-2-yl)oxy]-1H-indazol-6-yl}-2-(4-phenylpiperazin-1-yl)benzamide]",,
318,330,318,"CNC(=O)c1ccc(-c2cc(OC(C)C(F)(F)F)c3c(N)n[nH]c3c2)cc1N1CCN(C2CC2)CC1 (centres unmarked) [Example 34, 4-{3-amino-4-[(1,1,1-trifluoropropan-2-yl)oxy]-1H-indazol-6-yl}-2-(4-cyclopropylpiperazin-1-yl)-N-methylbenzamide]",,
19,3.89,8.32,"NC(=O)c1ccc(-c2cc(OC3CCCC3)c3c(N)n[nH]c3c2)cc1N1CCN(C2CCCCC2)CC1 [Example 74, 4-[3-amino-4-(cyclopentyloxy)-1H-indazol-6-yl]-2-(4-cyclohexylpiperazin-1-yl)benzamide]",,
7.98,3.2,5.11,"CNC(=O)c1ccc(-c2cc(OC3CCOCC3)c3c(C)n[nH]c3c2)cc1N1CCN(C(=O)OC(C)C)CC1 [Example 125, isopropyl 4-{2-(methylcarbamoyl)-5-[3-methyl-4-(tetrahydro-2H-pyran-4-yloxy)-1H-indazol-6-yl]phenyl}piperazine-1-carboxylate]",,85

# Reference: patent publication US20160376240A1, “6 Phenyl or 6 Pyridin 3 YL Indazole Derivatives and Methods of Use” (ABBVIE INC., priority 2014, published 2016)
